What was measured:
Type in all cases: cell-based
[1] = tested on: Mycobacterium tuberculosis strain 7; test: Agar Dilution Test (MIC), strain 7 (Isoniacid R, Rifampicin S, Streptomycin R); conditions: TABLE A; strain 7; MIC determined after 3, 4 and 5 weeks
[2] = tested on: Mycobacterium tuberculosis strain 8; test: Agar Dilution Test (MIC), strain 8 (Isoniacid S, Rifampicin R, Streptomycin S); conditions: TABLE A; strain 8; MIC determined after 3, 4 and 5 weeks
[3] = tested on: Mycobacterium tuberculosis strain 10; test: Agar Dilution Test (MIC), strain 10 (Isoniacid S, Rifampicin S, Streptomycin S); conditions: TABLE A; strain 10; MIC determined after 3, 4 and 5 weeks
[4] = tested on: Mycobacterium tuberculosis strain 1; test: Agar Dilution Test (MIC), strain 1 (Isoniacid S, Rifampicin S, Streptomycin S); conditions: TABLE A; strain 1; MIC determined after 3, 4 and 5 weeks
[5] = tested on: Mycobacterium tuberculosis strain 15 (labor strain 137 kV); test: Agar Dilution Test (MIC), strain 15 = labor strain 137 kV (Isoniacid S, Rifampicin S, Streptomycin S); conditions: TABLE A; strain 15; MIC determined after 3, 4 and 5 weeks
[6] = tested on: Mycobacterium tuberculosis strain 3; test: Agar Dilution Test (MIC), strain 3 (Isoniacid R, Rifampicin R, Streptomycin S); conditions: TABLE A; strain 3; MIC determined after 3, 4 and 5 weeks
[7] = tested on: Mycobacterium tuberculosis strain 9; test: Agar Dilution Test (MIC), strain 9 (Isoniacid R, Rifampicin S, Streptomycin R); conditions: TABLE A, MIC determined after 3, 4 and 5 weeks
[8] = tested on: Mycobacterium tuberculosis strain 4; test: Agar Dilution Test (MIC), strain 4 (Isoniacid R, Rifampicin R, Streptomycin R); conditions: TABLE A; strain 4; MIC determined after 3, 4 and 5 weeks
[9] = tested on: Mycobacterium tuberculosis strain 11; test: Agar Dilution Test (MIC), strain 11 (Isoniacid S, Rifampicin S, Streptomycin S); conditions: TABLE A; strain 11; MIC determined after 3, 4 and 5 weeks
[10] = tested on: Mycobacterium tuberculosis strain 2; test: Agar Dilution Test (MIC), strain 2 (Isoniacid S, Rifampicin S, Streptomycin S); conditions: TABLE A; strain 2; MIC determined after 3, 4 and 5 weeks
[11] = tested on: Mycobacterium tuberculosis strain 14; test: Agar Dilution Test (MIC), strain 14 (Isoniacid S, Rifampicin S, Streptomycin S); conditions: TABLE A; strain 14; MIC determined after 3, 4 and 5 weeks
[12] = tested on: Mycobacterium tuberculosis strain 6; test: Agar Dilution Test (MIC), strain 6 (Isoniacid S, Rifampicin S, Streptomycin S); conditions: TABLE A; strain 6; MIC determined after 3, 4 and 5 weeks
[13] = tested on: Mycobacterium tuberculosis strain 12; test: Agar Dilution Test (MIC), strain 12 (Isoniacid S, Rifampicin S, Streptomycin S); conditions: TABLE A; strain 12; MIC determined after 3, 4 and 5 weeks
[14] = tested on: Mycobacterium tuberculosis strain 5; test: Agar Dilution Test (MIC), strain 5 (Isoniacid R, Rifampicin R, Streptomycin S); conditions: TABLE A; strain 5; MIC determined after 3, 4 and 5 weeks
[15] = tested on: Mycobacterium tuberculosis strain 13; test: Agar Dilution Test (MIC), strain 13 (Isoniacid S, Rifampicin S, Streptomycin S); conditions: TABLE A; strain 13; MIC determined after 3, 4 and 5 weeks

SMILES | sensible (S) or resistant (R) [1] | sensible (S) or resistant (R) [2] | sensible (S) or resistant (R) [3] | sensible (S) or resistant (R) [4] | sensible (S) or resistant (R) [5] | sensible (S) or resistant (R) [6] | sensible (S) or resistant (R) [7] | sensible (S) or resistant (R) [8] | sensible (S) or resistant (R) [9] | sensible (S) or resistant (R) [10] | sensible (S) or resistant (R) [11] | sensible (S) or resistant (R) [12] | sensible (S) or resistant (R) [13] | sensible (S) or resistant (R) [14] | sensible (S) or resistant (R) [15]
NNC(=O)c1ccncc1 [Isoniacid] | R (A strain is designated as resistant if its MIC in testing according to the General Test Procedure after 3 to 5 weeks is higher than 20 μg/ml) | S (sensible (S)) | S (sensible (S)) | S (sensible (S)) | S (sensible (S)) | R (A strain is designated as resistant if its MIC in testing according to the General Test Procedure after 3 to 5 weeks is higher than 20 μg/ml) | R (A strain is designated as resistant if its MIC in testing according to the General Test Procedure after 3 to 5 weeks is higher than 20 μg/ml) | R (A strain is designated as resistant if its MIC in testing according to the General Test Procedure after 3 to 5 weeks is higher than 20 μg/ml) | S (sensible (S)) | S (sensible (S)) | S (sensible (S)) | S (sensible (S)) | S (sensible (S)) | R (A strain is designated as resistant if its MIC in testing according to the General Test Procedure after 3 to 5 weeks is higher than 20 μg/ml) | S (sensible (S))
CO[C@H]1/C=C/O[C@@]2(C)Oc3c(C)c(O)c4c(O)c(c(/C=N/N5CCN(C)CC5)c(O)c4c3C2=O)NC(=O)/C(C)=C\C=C\[C@H](C)[C@H](O)[C@@H](C)[C@@H](O)[C@@H](C)[C@H](OC(C)=O)[C@@H]1C [Rifampicin] | S (sensible (S)) | R (A strain is designated as resistant if its MIC in testing according to the General Test Procedure after 3 to 5 weeks is higher than 20 μg/ml) | S (sensible (S)) | S (sensible (S)) | S (sensible (S)) | R (A strain is designated as resistant if its MIC in testing according to the General Test Procedure after 3 to 5 weeks is higher than 20 μg/ml) | S (sensible (S)) | R (A strain is designated as resistant if its MIC in testing according to the General Test Procedure after 3 to 5 weeks is higher than 20 μg/ml) | S (sensible (S)) | S (sensible (S)) | S (sensible (S)) | S (sensible (S)) | S (sensible (S)) | R (A strain is designated as resistant if its MIC in testing according to the General Test Procedure after 3 to 5 weeks is higher than 20 μg/ml) | S (sensible (S))
[H]/N=C(/N)N[C@H]1[C@H](O)[C@@H](O)[C@H](O[C@@H]2O[C@@H](C)[C@](O)(C=O)[C@H]2O[C@@H]2O[C@@H](CO)[C@H](O)[C@@H](O)[C@@H]2NC)[C@@H](N/C(N)=N\[H])[C@@H]1O [Streptomycin] | R (A strain is designated as resistant if its MIC in testing according to the General Test Procedure after 3 to 5 weeks is higher than 20 μg/ml) | S (sensible (S)) | S (sensible (S)) | S (sensible (S)) | S (sensible (S)) | S (sensible (S)) | R (A strain is designated as resistant if its MIC in testing according to the General Test Procedure after 3 to 5 weeks is higher than 20 μg/ml) | R (A strain is designated as resistant if its MIC in testing according to the General Test Procedure after 3 to 5 weeks is higher than 20 μg/ml) | S (sensible (S)) | S (sensible (S)) | S (sensible (S)) | S (sensible (S)) | S (sensible (S)) | S (sensible (S)) | S (sensible (S))

Source: patent US20120046276A1, “Tuberculosis treatment using pleuromutilin derivatives” (priority 2002, published 2012)
